From PubChem BioAssay (NCI)
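How tested: cells in 96-well plates exposed to compound for 48 hours at five concentrations. The concentration for full growth arrest is given as TGI.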

Experiments:
Test in all cases: inhibition of tumour cell growth, NCI panel, 48 h
CCRF-CEM leukemia = test system: CCRF-CEM leukemia
EKVX NSCLC = test system: EKVX NSCLC
HCT-116 colon = test system: HCT-116 colon
HL-60(TB) leukemia = test system: HL-60(TB) leukemia
HOP-92 NSCLC = test system: HOP-92 NSCLC
IGROV1 ovarian = test system: IGROV1 ovarian
K-562 leukemia = test system: K-562 leukemia
M14 melanoma = test system: M14 melanoma
MCF7 breast = test system: MCF7 breast
MDA-MB-435 = test system: MDA-MB-435
NCI-H226 lung = test system: NCI-H226 lung
OVCAR-3 ovarian = test system: OVCAR-3 ovarian
OVCAR-4 ovarian = test system: OVCAR-4 ovarian
PC-3 prostate = test system: PC-3 prostate
RPMI-8226 leukemia = test system: RPMI-8226 leukemia
UO-31 renal = test system: UO-31 renal

Compound | TGI (CCRF-CEM leukemia) | TGI (EKVX NSCLC) | TGI (HCT-116 colon) | TGI (HL-60(TB) leukemia) | TGI (HOP-92 NSCLC) | TGI (IGROV1 ovarian) | TGI (K-562 leukemia) | TGI (M14 melanoma) | TGI (MCF7 breast) | TGI (MDA-MB-435) | TGI (NCI-H226 lung) | TGI (OVCAR-3 ovarian) | TGI (OVCAR-4 ovarian) | TGI (PC-3 prostate) | TGI (RPMI-8226 leukemia) | TGI (UO-31 renal)
O=C(CSc1ncccn1)N/N=C/c1ccccc1OCc1ccccc1 | 57.9 µM | 83.1 µM | 53.4 µM | 47.5 µM | 78.3 µM | > 100 µM | > 100 µM | > 100 µM | 43.9 µM | 31.5 µM | 55.1 µM | 33.9 µM | > 100 µM | > 100 µM | 43.6 µM | > 100 µM
C=CC(C)(C)n1cc(C2=C3OC(=O)C(c4cn(C(C)(C)C=C)c5ccccc45)=C3OC2=O)c2ccccc21 | > 100 µM | > 100 µM | > 100 µM | > 100 µM | > 100 µM | > 100 µM | > 100 µM | > 100 µM | > 100 µM | > 100 µM | > 100 µM | > 100 µM | > 100 µM | > 100 µM | > 100 µM | > 100 µM
COC(=O)c1ccccc1/C=C1\Cc2c(ccc3c2CCC3)C1=O | > 100 µM | > 100 µM | > 100 µM | > 100 µM | > 100 µM | > 100 µM | > 100 µM | > 100 µM | > 100 µM | > 100 µM | > 100 µM | > 100 µM | > 100 µM | > 100 µM | > 100 µM | > 100 µM
O=C1c2ccccc2C(=O)C2NC(CCCCCSSCCCCCC3=NC4C(=O)c5ccccc5C(=O)C4N3)=NC12 (configuration not stated) | > 100 µM | > 100 µM | > 100 µM | > 100 µM | 69.2 µM | > 100 µM | > 100 µM | > 100 µM | > 100 µM | > 100 µM | > 100 µM | > 100 µM | > 100 µM | > 100 µM | > 100 µM | > 100 µM
C[N+]12CCCCC1C(COc1cccc3cccnc13)CCC2 (configuration not stated) | > 100 µM | > 100 µM | > 100 µM | > 100 µM | > 100 µM | > 100 µM | > 100 µM | > 100 µM | > 100 µM | > 100 µM | > 100 µM | > 100 µM | > 100 µM | > 100 µM | > 100 µM | > 100 µM
O=C1CC(Br)c2c(Br)sc(Br)c21 (configuration not stated) | 9.42 µM | 39 µM | 26.4 µM | 39.3 µM | 31.5 µM | 33.5 µM | 29.9 µM | 29.2 µM | 32.4 µM | 39.1 µM | 54.6 µM | 32.9 µM | 33.3 µM | 39.4 µM | 28 µM | 34.7 µM
CC(C)OC(=O)c1ccc(NCC2=CC(=O)C=CC2=O)cc1 | 6.48 µM | 31.7 µM | 28.6 µM | 5.24 µM | 8.83 µM | 26.4 µM | 7.39 µM | 28.3 µM | 27.3 µM | 26.4 µM | > 100 µM | 21.6 µM | 26.2 µM | 25.7 µM | > 24.8 µM | 21.8 µM
